Laboratory results published in ChEMBL document CHEMBL1143143, “The influence of esters and carboxylic acids as the N-substituent of opioids. Part 1: Benzomorphans” (Bioorg Med Chem, 2008).
Active and inactive are the calls of the source. No cut-off for these calls is given here.

Assays:
[1] = test system: Mus musculus; assay: Antinociceptive activity in sc dosed mouse assessed as inhibition of morphin response by tail flick assay; format: functional
[2] = test system: Mus musculus; assay: Antinociceptive activity in sc dosed mouse by phenylquinone antiwrithing assay; format: functional
[3] = Displacement of [3H]etorphine from opioid receptor in rat cerebrum
[4] = test system: Mus musculus; assay: Antinociceptive activity in sc dosed mouse by tail flick method; format: functional
[5] = Displacement of 3.0 nM [3H]etorphine from opioid receptor in rat cerebrum
[6] = test system: Mus musculus; assay: Antinociceptive activity in sc dosed mouse by hot plate method; format: functional
[7] = target: Mu-type opioid receptor (Mus musculus, UniProt P42866); assay: Agonist activity at mu opioid receptor in Swiss mouse vas deferens assessed as inhibition of electrically-stimulated twitch; format: functional, tissue-based
Chain of Mu-type opioid receptor (P42866 whole entry): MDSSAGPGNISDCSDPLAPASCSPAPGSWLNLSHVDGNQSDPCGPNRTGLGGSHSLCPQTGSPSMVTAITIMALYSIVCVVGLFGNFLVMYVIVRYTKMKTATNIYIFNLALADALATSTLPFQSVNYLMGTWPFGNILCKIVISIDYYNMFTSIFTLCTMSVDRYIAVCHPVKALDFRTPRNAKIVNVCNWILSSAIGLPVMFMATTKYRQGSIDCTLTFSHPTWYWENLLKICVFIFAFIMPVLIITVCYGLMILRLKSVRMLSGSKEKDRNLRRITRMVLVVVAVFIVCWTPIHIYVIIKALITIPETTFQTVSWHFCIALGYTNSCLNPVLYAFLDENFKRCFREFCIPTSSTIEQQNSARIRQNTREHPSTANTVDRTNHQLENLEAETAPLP

| Compound | ED50 [1] | ED50 [2] | EC50 [3] | Activity [4] | Activity [2] | EC50 [5] | Activity [6] | Activity [1] | EC50 [7] | ED50 [6] | ED50 [4] |
| --- | --- | --- | --- | --- | --- | --- | --- | --- | --- | --- | --- |
| CN1CC[C@]23c4c5ccc(O)c4O[C@H]2[C@@H](O)C=C[C@H]3[C@H]1C5 [MORPHINE] | 2.6 mg/kg |  |  |  |  |  |  |  |  |  |  |
| C=CCN1CC[C@]23c4c5ccc(O)c4O[C@H]2[C@@H](O)C=C[C@H]3[C@H]1C5 [NALORPHINE] | 2.6 mg/kg | 0.6 mg/kg | 0.02 µM | inactive |  |  |  |  |  |  |  |
| O=C1CC[C@@]2(O)[C@H]3Cc4ccc(O)c5c4[C@@]2(CCN3CC2CC2)[C@H]1O5 [NALTREXONE] | 0.007 mg/kg |  | 0.00063 µM | inactive | inactive | 0.002 µM | inactive |  |  |  |  |
| C=CCN1CC[C@]23c4c5ccc(O)c4O[C@H]2C(=O)CC[C@@]3(O)[C@H]1C5 [NALOXONE] | 0.03 mg/kg |  | 0.00626 µM | inactive | inactive | 0.0091 µM | inactive |  |  |  |  |
| CCOC(=O)CN1CC[C@]2(C)c3cc(O)ccc3CC1[C@@H]2C |  |  | 2.08 µM | inactive | inactive |  | inactive | inactive |  |  |  |
| CCOC(=O)CCCN1CC[C@]2(C)c3cc(O)ccc3CC1[C@@H]2C |  | 7.1 mg/kg | 1.02 µM | inactive |  |  | inactive | inactive | 17.9 µM |  |  |
| COc1ccc2c3c1O[C@H]1[C@@H](O)C=C[C@H]4[C@@H](C2)N(C)CC[C@@]341 [CODEINE] |  |  |  |  |  | 34.7 µM |  |  |  |  |  |
| C[C@H]1[C@@H]2Cc3ccc(O)cc3[C@]1(C)CCN2C [METAZOCINE] |  | 0.3 mg/kg |  |  |  |  |  | inactive |  | 0.62 mg/kg | 0.81 mg/kg |
| C[C@H]1C2Cc3ccc(O)cc3[C@@]1(C)CCN2CCC(=O)O |  | 11.4 mg/kg | > 6 µM | inactive |  |  | inactive | inactive |  |  |  |
| CCOC(=O)CCN1CC[C@]2(C)c3cc(O)ccc3CC1[C@@H]2C |  |  |  | inactive | inactive |  | inactive | inactive |  |  |  |
| C[C@H]1C2Cc3ccc(O)cc3[C@@]1(C)CCN2CCCC(=O)O |  | 1.4 mg/kg | > 6 µM | inactive |  |  | inactive | inactive |  |  |  |
| C[C@H]1C2Cc3ccc(O)cc3[C@@]1(C)CCN2CC(=O)O |  |  | > 6 µM | inactive | inactive |  | inactive | inactive | 9.79 µM |  |  |
